These results are taken from patent US6720423B2, “Dihydrobenzofuran and dihydrobenzothiophene 2,4-pentadienoic acid derivatives having selective activity for retinoid X (RXR) receptors” (Allergan, Inc., priority 2002, dated 2004).

In one assay the target is T1, RARβ (Homo sapiens, UniProt P10826).
T1 sequence (P10826 1-455): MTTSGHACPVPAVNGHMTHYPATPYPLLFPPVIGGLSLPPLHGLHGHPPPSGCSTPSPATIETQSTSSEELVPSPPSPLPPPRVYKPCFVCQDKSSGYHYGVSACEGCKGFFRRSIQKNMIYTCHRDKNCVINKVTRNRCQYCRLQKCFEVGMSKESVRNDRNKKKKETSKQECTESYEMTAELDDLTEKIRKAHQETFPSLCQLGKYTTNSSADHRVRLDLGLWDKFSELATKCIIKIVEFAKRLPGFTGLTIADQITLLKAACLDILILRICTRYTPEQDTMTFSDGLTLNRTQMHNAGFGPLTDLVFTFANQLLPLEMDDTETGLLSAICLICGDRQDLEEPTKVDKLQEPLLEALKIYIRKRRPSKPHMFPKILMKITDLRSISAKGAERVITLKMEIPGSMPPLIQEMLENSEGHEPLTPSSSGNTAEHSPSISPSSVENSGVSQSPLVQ
As to the kind of experiment: ligand binding assay, RARβ. To be noted: second entry of cell, read-out: RAR Bind. Ki (nM) β. The source says: (§1) A holoreceptor transactivation assay and a ligand binding assay which measure the antagonist/agonist like activity of the compounds of the invention, or their ability to bind to the several retinoid receptor subtypes, respectively, are described in published PCT Application No. WO WO93/11755 (particularly on pages 30-33 and 37-41) published on Jun. 24, 1993, the specification of which is also incorporated herein by reference. A detailed experimental procedure for holoreceptor transactivations has been described by Heyman et al. Cell 68, 397-406, (1992); Allegretto et al. J. Biol. Chem. 268, 26625-26633, and Mangelsdorf et al. The Retinoids: Biology, Chemistry and Medicine, pp 319-349, Raven Press Ltd., New York, which are expressly incorporated herein by reference. The results obtained in this assay are expressed in EC50 numbers, as they are also in the chimeric receptor transactivation assay. The results of ligand binding assay are expressed in Kd numbers. (See Cheng et al. Biochemical Pharmacology Vol. 22 pp 3099-3108, expressly incorporated herein by reference.)

Another assay concerns the target T2, RXRα (Homo sapiens, UniProt P19793).
T2 construct: the only RXRα plasmid printed
T2 sequence (P19793 227-462 limits assumed): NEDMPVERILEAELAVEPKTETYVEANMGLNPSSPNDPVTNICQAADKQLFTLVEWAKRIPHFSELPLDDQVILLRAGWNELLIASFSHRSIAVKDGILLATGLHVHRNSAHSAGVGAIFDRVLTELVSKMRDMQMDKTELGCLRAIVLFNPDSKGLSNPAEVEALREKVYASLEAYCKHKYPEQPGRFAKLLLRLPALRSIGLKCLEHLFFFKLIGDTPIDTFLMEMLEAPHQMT
As to the kind of experiment: receptor transactivation assay, RXRα. The assay is classed as cell-based. The conditions noted are these: first entry of cell, read-out: RXR Trans. EC50 (nM) α.
Description: as §1

The target in assay [1] is T3, RXRβ (UniProt P28704).
T3 sequence (P28704 1-520): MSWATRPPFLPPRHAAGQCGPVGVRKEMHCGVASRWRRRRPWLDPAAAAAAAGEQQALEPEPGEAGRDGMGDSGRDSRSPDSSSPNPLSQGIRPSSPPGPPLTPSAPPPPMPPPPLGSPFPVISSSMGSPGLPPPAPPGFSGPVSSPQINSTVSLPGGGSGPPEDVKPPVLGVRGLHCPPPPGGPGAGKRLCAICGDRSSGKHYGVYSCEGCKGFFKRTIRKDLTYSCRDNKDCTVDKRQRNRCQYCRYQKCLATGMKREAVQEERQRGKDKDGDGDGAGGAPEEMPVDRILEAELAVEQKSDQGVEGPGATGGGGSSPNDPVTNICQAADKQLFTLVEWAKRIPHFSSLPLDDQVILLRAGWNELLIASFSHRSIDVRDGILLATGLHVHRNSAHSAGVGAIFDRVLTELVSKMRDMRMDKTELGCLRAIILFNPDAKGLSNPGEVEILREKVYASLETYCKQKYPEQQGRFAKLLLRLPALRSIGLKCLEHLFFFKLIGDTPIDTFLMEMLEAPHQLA
As to the kind of experiment: ligand binding assay, RXRβ. Set-up: other: RXRβ; last entry of cell. The conditions noted are these: last entry of cell, read-out: RXR Bind Ki (nM) β.
Description: as §1

The target of assay [2] is T3, RXRβ. Briefly: receptor transactivation assay, RXRβ. The assay is classed as cell-based. Set-up: RXR Trans; other: RXRβ; first entry of cell. The conditions noted are these: for EC50: first entry of cell, read-out: RXR Trans. EC50 (nM) β; for RXR Trans. β, number in parentheses after EC50: parenthesised number, not defined in the patent.
Description: as §1

Bounds are passed on as bounds.

Consider `COc1ccc(-c2cc([C@@]3(C)C[C@H]3/C=C/C(C)=C/C(=O)O)cc3c2OCC3(C)C)cc1` [Compound 32, (E)-3-((E)-2-{(1S,2S)-2-[7-(4-Methoxy-phenyl)-3,3-dimethyl-2,3-dihydro-benzofuran-5-yl]-2-methyl-cyclopropyl}-vinyl)-but-2-enoic acid], for which the Ki on RARβ came out at 15000 nM; on RXRβ [1], 926 nM. Also, the EC50 is 581 nM at RXRα and greater than 1000 nM at RXRβ [2].
On to `CC(/C=C/[C@@H]1C[C@]1(C)c1cc(-c2ccc(F)cc2)c2c(c1)C(C)(C)CO2)=C\C(=O)O` [Compound 34, (E)-3-((E)-2-{(1S,2S)-2-[7-(4-Fluoro-phenyl)-3,3-dimethyl-2,3-dihydro-benzofuran-5-yl]-2-methyl-cyclopropyl}-vinyl)-but-2-enoic acid], for which the Ki at RARβ was determined as 8750 nM; on RXRβ [1], 4 nM. In addition, the EC50 at RXRα amounted to 0.37 nM; at RXRβ [2] it was 4.55 nM. Besides, the “RXR Trans. β, number in parentheses after EC50” value at RXRβ [2] came to 93.
`CC(/C=C/[C@@H]1C[C@@H]1c1ccc2c(c1)C(C)(C)CO2)=C\C(=O)O` [Compound 36, (E)-3-{(E)-2-F[(1S,2S)-2-(3,3-Dimethyl-2,3-dihydro-benzofuran-5-yl)-cyclopropyl]-vinyl}-but-2-enoic acid]: the Ki at RARβ is greater than 10000 nM; on RXRβ [1], 312 nM. Besides, the figures for the EC50 at RXRα and at RXRβ [2] were 609 nM and greater than 1000 nM, respectively.
For `CCCCC(O)CCc1cc([C@@]2(C)C[C@H]2/C=C/C(C)=C/C(=O)O)cc2c1OCC2(C)C` (stereo partly drawn) [Compound 38, (E)-3-((E)-2-{(1S,2S)-2-[7-(3-Hydroxy-heptyl)-3,3-dimethyl-2,3-dihydro-benzofuran-5-yl]-2-methyl-cyclopropyl}-vinyl)-but-2-enoic acid], in that order: greater than 10000 nM, 557 nM, 1950 nM and 1360 nM.
Turning to `CCCCC(=O)CCc1cc([C@@]2(C)C[C@H]2/C=C/C(C)=C/C(=O)O)cc2c1OCC2(C)C` [Compound 40], the values for the inhibition constant (Ki) on RARβ and on RXRβ [1] were 22000 nM and 69 nM, respectively. Further, the figures for the half-maximal effective concentration (EC50) on RXRα and at RXRβ [2] were 330 nM and 2040 nM, respectively. Moreover, the “RXR Trans. β, number in parentheses after EC50” value at RXRβ [2] is 103.
